Data: patent US12336994B2, “Alpha polyglutamated tetrahydrofolates and uses thereof” (L.E.A.F. HOLDINGS GROUP LLC, priority 2018, dated 2025)

Assays:
[1] = test system: NCI H2342 non-small cell lung cancer (NSCLC), adenocarcinoma subtype; assay: CellTiter-Glo (CTG) luminescent cell viability assay, NCI H2342; type: cell-based, Human; settings: NCI H2342, 48 hours of treatment
Experimental: (§1) Luciferase luminescence were recorded for each well.

HT-29 (colon cancer) = assay: CellTiter-Glo (CTG) luminescent cell viability assay, HT-29; type: cell-based, Human; settings: HT-29, 48 hours
Experimental: as §1

AML12 liver cells = assay: Toxicity on AML12 non-cancerous liver cells; type: cell-based; settings: all doses studied (16 nM to 128 nM), 48 hours
Source text: (§2) Methodologies used for cell line AML12 (non-cancerous liver cells) and CCD841 (non-cancerous colon epithelial cells) are similar to the methods used for cancer cells.

[2] = test system: CCD841 colon epithelium cells; assay: Toxicity on CCD841 non-cancerous colon epithelial cells; type: cell-based; settings: all concentrations tested (16 nM, 32 nM, 64 nM, 128 nM), 48 hours
Source text: as §2

SMILES	potency (cytotoxic activity, dose response) compared among test articles and pemetrexed ([1]; listed as free L gamma G6)	potency (cytotoxic activity, dose response) compared among test articles and pemetrexed ([1]; listed as free pemetrexed gG6)	potency (cytotoxic activity, dose response) compared among test articles and pemetrexed (HT-29 (colon cancer); listed as free L gamma G6)	potency (cytotoxic activity, dose response) compared among test articles and pemetrexed (HT-29 (colon cancer); listed as free pemetrexed gG6)	reduction in the AML12 liver cell counts (AML12 liver cells)	decrease in the number of CCD841 colon epithelium cells [2]
Nc1nc2[nH]cc(CCc3ccc(C(=O)N[C@@H](CCC(=O)N[C@@H](CCC(=O)N[C@@H](CCC(=O)N[C@@H](CCC(=O)N[C@@H](CCC(=O)N[C@@H](CCC(=O)O)C(=O)O)C(=O)O)C(=O)O)C(=O)O)C(=O)O)C(=O)O)cc3)c2c(=O)[nH]1 [gG6, free pemetrexed L-gamma hexaglutamate]	lowest potency	least potent	lowest potency	least potent	–	–
Nc1nc2[nH]cc(CCc3ccc(C(=O)N[C@@H](CCC(=O)O)C(=O)O)cc3)c2c(=O)[nH]1 [pemetrexed]	–	–	–	–	approximately 40%	≥ 50%
